Measured values from ChEMBL document CHEMBL3507680, “University of Dundee, Gates Library screen for HepG2 cell viability”.

Assay: Human HepG2 cell viability assay in 384 well format
Assay type: toxicity, cell-based
Set-up: dose 125 nL, time 70.5 hour; cytotoxicity at 70.5 h: concentration not given beside the values
Settings: HepG2 cells, read-out: Inhibition

## Cc1nn(-c2cc(Cl)cc(Cl)c2)c(C)c1CCC(=O)O
  cytotoxicity at 70.5 h: -5.45%

## Cc1nn(-c2ccccc2Cl)c(C)c1CCC(=O)O
  cytotoxicity at 70.5 h: 4.21%

## CCOc1ccc(NC(=O)C2OC(c3cccs3)=NN2C(C)=O)cc1 (centres undefined)
  cytotoxicity at 70.5 h: 11.5%

## CC(=O)N1N=C(c2cccs2)OC1C(=O)Nc1ccc(C(C)C)cc1 (centres undefined)
  cytotoxicity at 70.5 h: -2.48%

## CCN(CC)CCNC(=O)CCc1c(C)nn(-c2cccc(Cl)c2)c1C
  cytotoxicity at 70.5 h: 0.617%

## CCOC(=O)CNC(=O)Cn1c(-c2ccoc2)nc(C)c1C
  cytotoxicity at 70.5 h: 3.16%

## CN(CCC(O)c1ccccc1)Cc1nc(-c2ccccc2)no1 (centres undefined)
  cytotoxicity at 70.5 h: -7.98%

## CN(CCC(O)c1ccccc1)Cc1ccccc1C#N (centres undefined)
  cytotoxicity at 70.5 h: -5.67%

## Nc1c(N2CCCCC2)ncnc1N1CCOCC1
  cytotoxicity at 70.5 h: 1.26%

## CN(C)C(=O)c1cc2ncc(C(=O)NC3CC3)cc2n1C
  cytotoxicity at 70.5 h: -1.06%

## CC(=O)c1cc2ncc(C(=O)NC3CCCCC3)cc2[nH]1
  cytotoxicity at 70.5 h: 0.178%

## CNC(=O)c1cnc2c(C)csc2c1
  cytotoxicity at 70.5 h: 22%

## Cc1csc2cc(C(=O)NC3CC3)cnc12
  cytotoxicity at 70.5 h: -1.57%

## COCCCNC(=O)c1cn(C(C)(C)C)c2ncccc12
  cytotoxicity at 70.5 h: -5.22%

## O=C(c1cn(Cc2ccccc2)c2ncccc12)N1CCOCC1
  cytotoxicity at 70.5 h: 2.42%

## CN1CCN(C(=O)c2cn(Cc3ccccc3)c3ncccc23)CC1
  cytotoxicity at 70.5 h: -3.43%

## O=C(NCCN1CCCCC1)C(c1ccccc1)N1CCCC1 (centres undefined)
  cytotoxicity at 70.5 h: 2.81%

## CCN(CC)CCNC(=O)CCc1c(C)nn(-c2ccccc2Br)c1C
  cytotoxicity at 70.5 h: 8.21%

## N#CCCN(CC1CCCO1)C(=O)c1ccc(C#N)cc1 (centres undefined)
  cytotoxicity at 70.5 h: -2.77%

## N#CCCN(CC1CCCO1)C(=O)c1ccc2nonc2c1 (centres undefined)
  cytotoxicity at 70.5 h: 0.813%

## N#CCCN(CC1CCCO1)C(=O)c1ccsc1 (centres undefined)
  cytotoxicity at 70.5 h: -4.29%

## O=C(NCCn1cccc1)C(c1ccccc1)N1CCCC1 (centres undefined)
  cytotoxicity at 70.5 h: 1.81%

## CC(C)(C)C(=O)CN1CCc2ccccc2NCCC1=O
  cytotoxicity at 70.5 h: 3.4%

## COc1ccc2c(c1)CN(Cc1ccco1)C(=O)CCN2CC(C)(C)O
  cytotoxicity at 70.5 h: 1.21%

## COc1ccccc1CN1CC(O)CN(C(=O)OCC(C)C)CC1=O (centres undefined)
  cytotoxicity at 70.5 h: -10.9%

## CS(=O)(=O)N1CC(=O)N(CCCc2ccccc2)CC(O)C1 (centres undefined)
  cytotoxicity at 70.5 h: -8.69%

## CCS(=O)(=O)N1CC(=O)N(CCCc2ccccc2)CC(O)C1 (centres undefined)
  cytotoxicity at 70.5 h: -3.91%

## COc1ccc(CC(=O)N2CC(=O)NCC(C)(C)C2)cc1
  cytotoxicity at 70.5 h: 14.8%

## O=S1(=O)c2cccnc2OC(COc2ccccc2)CN1CC1CC1 (centres undefined)
  cytotoxicity at 70.5 h: -2.28%

## O=S1(=O)c2cccnc2OC(Cc2ccccc2)CN1CC1CC1 (centres undefined)
  cytotoxicity at 70.5 h: 1.6%

## CC(C)(C)OCC1CN(Cc2cccs2)S(=O)(=O)c2cnccc2O1 (centres undefined)
  cytotoxicity at 70.5 h: -2.07%

## COCC1CN(Cc2ccc(OC)cc2)S(=O)(=O)c2cnccc2O1 (centres undefined)
  cytotoxicity at 70.5 h: -3.12%

## COCCN1CCc2ccccc2NCCC1=O
  cytotoxicity at 70.5 h: -6.61%

## O=C(N1CCOCC1)N1C(CN2CCOCC2)[C@]2(O)CC[C@H]1CC2 (some centres undefined)
  cytotoxicity at 70.5 h: 3.03%

## CNC(=O)CN(C(=O)c1ccccc1)[C@H]1C[C@H]2CCOC[C@H]2C1
  cytotoxicity at 70.5 h: -1.15%

## CCN1CC2(CCCCN2C(=O)C2CCCCC2)CC1=O (centres undefined)
  cytotoxicity at 70.5 h: -7.76%

## Cc1cccc(CN2CCc3[nH]nc(C(=O)N4CCOCC4)c3C2)n1
  cytotoxicity at 70.5 h: 0.815%

## N#CC1(C(=O)N2Cc3cc(-c4cc[nH]n4)ccc3C2c2cnco2)CC1 (centres undefined)
  cytotoxicity at 70.5 h: 1.75%

## COCCNC(=O)c1ccnn1-c1ccc2ccccn12
  cytotoxicity at 70.5 h: -4.72%

## COCCCN1CC2(CCCCN2C(=O)COC)CC1=O (centres undefined)
  cytotoxicity at 70.5 h: -8.44%

## CCc1ccc(CN2CCc3[nH]nc(C(=O)N4CCNC(=O)C4)c3C2)o1
  cytotoxicity at 70.5 h: -11.8%

## CN(Cc1cccs1)C1CCC[C@@H]2CN(C(=O)c3cccn3C)C[C@H]12 (some centres undefined)
  cytotoxicity at 70.5 h: -12.3%

## CCN1C[C@@H]2CN(C(=O)C3CC=CC3)C[C@@H]2C1=O
  cytotoxicity at 70.5 h: 28%

## CN(C)c1ccc2c(c1)CN(C(=O)c1ccco1)C2c1cnco1 (centres undefined)
  cytotoxicity at 70.5 h: 32.5%

## CC1N(CC2CC2)C(=O)COC12CCN(C(=O)c1cnccn1)CC2 (centres undefined)
  cytotoxicity at 70.5 h: -5.19%

## O=C1COC2(CCN(C(=O)c3cnccn3)CC2)CN1CC1CC1
  cytotoxicity at 70.5 h: 18.8%

## Cc1nc(CN2CCC23CCN(C(=O)c2ccncc2)CC3)cs1
  cytotoxicity at 70.5 h: -9.81%

## CN1Cc2ccccc2CC2(CCN(c3ncccn3)CC2)C1=O
  cytotoxicity at 70.5 h: -14.8%

## C[C@@H]1C[C@@H]2CCN(Cc3nccs3)C[C@H]2O1
  cytotoxicity at 70.5 h: -9.1%

## O=C(NC[C@H]1C[C@@H]2CN(C(=O)c3ccno3)C[C@@H]2O1)C1CCC1
  cytotoxicity at 70.5 h: -11.5%

## Cc1noc(C[C@@H]2COC[C@H]3CN(C(=O)C4=CCCC4)C[C@@H]23)n1
  cytotoxicity at 70.5 h: -13.5%

## CN1Cc2ccccc2CC2(CCN(c3ncc(F)cn3)CC2)C1=O
  cytotoxicity at 70.5 h: -12.1%

## CCNC(=O)N1CCC2(CC1)CCn1c(C3CC3)cnc12
  cytotoxicity at 70.5 h: 30.6%

## CCN(C)C(=O)c1cnc(-c2noc3cc(N4CCCCC4)ccc23)s1
  cytotoxicity at 70.5 h: 30.7%
